# *1 amine or outer side, *2 acyl side, *3 side chain or, on linkers, in order; H or OH if unused. Where a SMILES comes first, the peptide text is derived from it. Bridges are numbered along the chain shown (N, C = ends). [ ]: non-standard residue; d: D form. Trp(1-CH2COOH) = N[C@@H](Cc1cn(CC(=O)O)c2ccccc12)C(=O)O; Phe(3,4,5-F3) = N[C@@H](Cc1cc(F)c(F)c(F)c1)C(=O)O; Phe(3,4-F2) = N[C@@H](Cc1ccc(F)c(F)c1)C(=O)O; NMePhe(4-F) = CN[C@@H](Cc1ccc(F)cc1)C(=O)O; d(cisHyp) = O=C(O)[C@H]1C[C@@H](O)CN1; Bta = N[C@@H](Cc1csc2ccccc12)C(=O)O; Hyp = O=C(O)[C@@H]1C[C@@H](O)CN1; NMeF = CN[C@@H](Cc1ccccc1)C(=O)O; X1 = O=C([C@H]1COCCN1[*:1])[*:2]; dHyp = O=C(O)[C@H]1C[C@H](O)CN1; NMehSer = CN[C@@H](CCO)C(=O)O; NMeNle = CCCC[C@H](NC)C(=O)O; Pip = O=C(O)[C@@H]1CCCCN1; dPip = O=C(O)[C@H]1CCCCN1; hSer = N[C@@H](CCO)C(=O)O; NMeA = CN[C@@H](C)C(=O)O; Orn = NCCC[C@H](N)C(=O)O; dThz = O=C(O)[C@H]1CSCN1; Dab = NCC[C@H](N)C(=O)O; Dap = NC[C@H](N)C(=O)O; Sar = CNCC(=O)O
# Biological target: T1, Human PD-L1/PD-1 (Homo sapiens, UniProt Q9NZQ7)
# T1 construct: TVMV protease cleavage site (C); made in house; host or cells: HEK293T cells
# T1 sequence (Q9NZQ7 with tags, fused parts or gaps): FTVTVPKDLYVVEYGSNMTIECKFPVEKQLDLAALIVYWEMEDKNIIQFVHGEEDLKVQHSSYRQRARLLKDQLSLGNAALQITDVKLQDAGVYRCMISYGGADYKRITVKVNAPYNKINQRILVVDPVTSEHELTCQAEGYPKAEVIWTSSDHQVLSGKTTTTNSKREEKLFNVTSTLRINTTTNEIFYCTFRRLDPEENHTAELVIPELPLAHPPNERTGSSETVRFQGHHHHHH
# Experiment: HTRF Human PD-L1/PD-1 binding assay (PD-1-Ig/PD-L1-His)
# Settings: PD-L1-His 10 nM, PD-1-Ig 20 nM; class symbol; read-out: HTRF Human PD-L1/PD-1 Binding Assay IC50 Range
# Outline: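 Compound preincubated 15 min with PD-L1-His (10 nM final), then PD-1-Ig (20 nM final) added for 15 min in dPBS with 0.1% BSA and 0.05% Tween-20. Detection by Eu-cryptate anti-Ig (1 nM) and APC anti-His (20 nM) after 30 min; 665/620 nm HTRF ratio. Proteins expressed in HEK293T.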
row,SMILES,IC50 [nM]
1,"CCCC[C@H]1C(=O)N2CCC[C@@H]2C(=O)N[C@@H](CN)C(=O)N[C@@H](C(C)C)C(=O)N(C)[C@@H](Cc2ccccc2)C(=O)N[C@@H](CCC(=O)O)C(=O)N2CCCC[C@@H]2C(=O)N[C@@H](Cc2c[nH]c3ccccc23)C(=O)N[C@@H](Cc2ccc(O)cc2)C(=O)N[C@@H](CC(C)C)C(=O)N[C@H](C(=O)NCC(N)=O)CSCC(=O)N[C@@H](Cc2cc(F)c(F)c(F)c2)C(=O)N(C)[C@@H](Cc2ccc(F)cc2)C(=O)N1C [Example 10578] ({CH2CO}-[Phe(3,4,5-F3)][NMePhe(4-F)][NMeNle][dP][Dap]V[NMeF]E[dPip]WYLCG-NH2; thioether N-13)",1 to 9.9
2,"CCCC[C@H]1C(=O)N2C[C@H](O)C[C@@H]2C(=O)N[C@@H](CC(=O)O)C(=O)N[C@@H](C(C)C)C(=O)N(C)[C@@H](Cc2ccccc2)C(=O)N[C@@H](CC(=O)O)C(=O)N2C[C@H](O)C[C@@H]2C(=O)N[C@@H](Cc2c[nH]c3ccccc23)C(=O)N[C@@H](Cc2ccc(O)cc2)C(=O)N[C@@H](CC(N)=O)C(=O)N[C@H](C(=O)NCC(N)=O)CSCC(=O)N[C@@H](Cc2cc(F)c(F)c(F)c2)C(=O)N(C)[C@@H](Cc2ccccc2)C(=O)N1C [Example 9352] ({CH2CO}-[Phe(3,4,5-F3)][NMeF][NMeNle][d(cisHyp)]DV[NMeF]D[d(cisHyp)]WYNCG-NH2; thioether N-13)",1 to 9.9
3,"COCC[C@H]1C(=O)N2C[C@@H](O)C[C@@H]2C(=O)N[C@@H](CC(=O)O)C(=O)N[C@@H](C(C)C)C(=O)N(C)[C@@H](Cc2ccccc2)C(=O)N[C@@H](CC(=O)O)C(=O)N2CCOC[C@@H]2C(=O)N[C@@H](Cc2c[nH]c3ccccc23)C(=O)N[C@@H](Cc2ccc(O)cc2)C(=O)N[C@@H](CCCN)C(=O)N[C@H](C(=O)NCC(N)=O)CSCC(=O)N[C@@H](Cc2cc(F)c(F)c(F)c2)C(=O)N(C)[C@@H](Cc2ccccc2)C(=O)N1C [Example 9269] ({CH2CO}-[Phe(3,4,5-F3)][NMeF][NMehSer](Me)[dHyp]DV[NMeF]D[X1]WY[Orn]CG-NH2; thioether N-13)",1 to 9.9
4,"CCCC[C@H]1C(=O)N2CCC[C@@H]2C(=O)N[C@@H](CC(N)=O)C(=O)N[C@@H](C(C)C)C(=O)N(C)[C@@H](Cc2ccccc2)C(=O)N[C@@H](CCC(=O)O)C(=O)N2CCCC[C@@H]2C(=O)N[C@@H](Cc2c[nH]c3ccccc23)C(=O)N[C@@H](Cc2ccc(O)cc2)C(=O)N[C@@H](CC(C)C)C(=O)N[C@H](C(=O)NCC(N)=O)CSCC(=O)N[C@@H](Cc2cc(F)c(F)c(F)c2)C(=O)N(C)[C@@H](Cc2ccc(F)cc2)C(=O)N1C [Example 10579] ({CH2CO}-[Phe(3,4,5-F3)][NMePhe(4-F)][NMeNle][dP]NV[NMeF]E[dPip]WYLCG-NH2; thioether N-13)",1 to 9.9
5,"CCCC[C@H]1C(=O)N2CCC[C@@H]2C(=O)N[C@@H](CC(=O)O)C(=O)N[C@@H](C(C)C)C(=O)N(C)[C@@H](Cc2ccccc2)C(=O)N[C@@H](CCCN)C(=O)N2CCC[C@@H]2C(=O)N[C@@H](Cc2c[nH]c3ccccc23)C(=O)N[C@@H](Cc2ccc(O)cc2)C(=O)N[C@@H](CCO)C(=O)N[C@H](C(=O)NCC(N)=O)CSCC(=O)N[C@@H](Cc2cc(F)c(F)c(F)c2)C(=O)N(C)[C@@H](Cc2ccccc2)C(=O)N1C [Example 10175] ({CH2CO}-[Phe(3,4,5-F3)][NMeF][NMeNle][dP]DV[NMeF][Orn][dP]WY[hSer]CG-NH2; thioether N-13)",1 to 9.9
6,"CCCC[C@H]1C(=O)N2CCC[C@@H]2C(=O)N[C@@H](CC(=O)O)C(=O)N[C@@H](C(C)C)C(=O)N(C)[C@@H](Cc2ccccc2)C(=O)N[C@@H](CCC(=O)O)C(=O)N2CSC[C@@H]2C(=O)N[C@@H](Cc2c[nH]c3ccccc23)C(=O)N[C@@H](Cc2ccc(O)cc2)C(=O)N[C@@H](CC(C)C)C(=O)N[C@H](C(=O)NCC(N)=O)CSCC(=O)N[C@@H](Cc2cc(F)c(F)c(F)c2)C(=O)N(C)[C@@H](Cc2ccccc2)C(=O)N1C [Example 10090] ({CH2CO}-[Phe(3,4,5-F3)][NMeF][NMeNle][dP]DV[NMeF]E[dThz]WYLCG-NH2; thioether N-13)",1 to 9.9

# Other lines, results leading:
row,IC50 [nM],SMILES
1,1 to 9.9,CCCC[C@H]1C(=O)N[C@@H](CCC(=O)O)C(=O)N[C@H](C(=O)NCC(N)=O)CSCC(=O)N[C@@H](Cc2ccc(O)cc2)C(=O)N(C)[C@@H](C)C(=O)N[C@@H](CC(=O)O)C(=O)N2CCC[C@H]2C(=O)N[C@@H](Cc2c[nH]cn2)C(=O)N[C@@H](CCC(N)=O)C(=O)N2C[C@H](O)C[C@H]2C(=O)N[C@@H](Cc2c[nH]c3ccccc23)C(=O)N[C@@H](CO)C(=O)N[C@@H](Cc2c[nH]c3ccccc23)C(=O)N(C)[C@@H](CCOC)C(=O)N1C [Example 10136] ({CH2CO}-Y[NMeA]DPHQ[Hyp]WSW[NMehSer](Me)[NMeNle]ECG-NH2; thioether N-14)
2,1 to 9.9,"CCCC[C@H]1C(=O)N2C[C@@H](O)C[C@@H]2C(=O)N[C@@H](CC(=O)O)C(=O)N[C@@H](C(C)C)C(=O)N(C)[C@@H](Cc2ccccc2)C(=O)N[C@@H](CCC(=O)O)C(=O)N2CCOC[C@@H]2C(=O)N[C@@H](Cc2c[nH]c3ccccc23)C(=O)N[C@@H](Cc2ccc(O)cc2)C(=O)N[C@@H](CCCN)C(=O)N[C@H](C(=O)NCC(N)=O)CSCC(=O)N[C@@H](Cc2ccc(F)c(F)c2)C(=O)N(C)[C@@H](Cc2ccccc2)C(=O)N1C [Example 9279] ({CH2CO}-[Phe(3,4-F2)][NMeF][NMeNle][dHyp]DV[NMeF]E[X1]WY[Orn]CG-NH2; thioether N-13)"
3,1 to 9.9,CCCC[C@H]1C(=O)N(C)[C@@H](CCCC)C(=O)N[C@@H](CC(C)C)C(=O)N[C@H](C(=O)NCC(N)=O)CSCC(=O)N[C@@H](Cc2ccc(O)cc2)C(=O)N2CCCC[C@H]2C(=O)N[C@@H](CC(=O)O)C(=O)N2CCC[C@H]2C(=O)N[C@@H](Cc2cnc[nH]2)C(=O)N[C@@H](CCC(N)=O)C(=O)N2C[C@H](O)C[C@H]2C(=O)N[C@@H](Cc2c[nH]c3ccccc23)C(=O)N[C@@H](CO)C(=O)N[C@@H](Cc2csc3ccccc23)C(=O)N1C [Example 1511] ({CH2CO}-Y[Pip]DPHQ[Hyp]WS[Bta][NMeNle][NMeNle]LCG-NH2; thioether N-14)
4,1 to 9.9,CCCC[C@H]1C(=O)N(C)[C@@H](CCCC)C(=O)N[C@@H](CC(=O)O)C(=O)N[C@H](C(=O)NCC(N)=O)CSCC(=O)N[C@@H](Cc2ccc(O)cc2)C(=O)N2CCCC[C@H]2C(=O)N[C@@H](CC(=O)O)C(=O)N2CCC[C@H]2C(=O)N[C@@H](Cc2cnc[nH]2)C(=O)N[C@@H](CCCCN)C(=O)N2C[C@H](O)C[C@H]2C(=O)N[C@@H](Cc2c[nH]c3ccccc23)C(=O)N[C@@H](CCCCN)C(=O)N[C@@H](Cc2cn(CC(=O)O)c3ccccc23)C(=O)N1C [Example 1302] ({CH2CO}-Y[Pip]DPHK[Hyp]WK[Trp(1-CH2COOH)][NMeNle][NMeNle]DCG-NH2; thioether N-14)
5,1 to 9.9,CCCC[C@H]1C(=O)N(C)[C@@H](CCCC)C(=O)N[C@@H](CC(C)C)C(=O)N[C@H](C(=O)NCC(N)=O)CSCC(=O)N[C@@H](Cc2ccc(OC)cc2)C(=O)N(C)[C@@H](C)C(=O)N[C@@H](CC(=O)O)C(=O)N2CCC[C@H]2C(=O)N[C@@H](Cc2cnc[nH]2)C(=O)N[C@@H](CCCCN)C(=O)N2C[C@H](O)C[C@@H]2C(=O)N[C@@H](Cc2c[nH]c3ccccc23)C(=O)N[C@@H](CCCCN)C(=O)N[C@@H](Cc2cn(CC(=O)O)c3ccccc23)C(=O)N1C [Example 7153] ({CH2CO}-Y(Me)[NMeA]DPHK[d(cisHyp)]WK[Trp(1-CH2COOH)][NMeNle][NMeNle]LCG-NH2; thioether N-14)
6,1 to 9.9,CCCC[C@H]1C(=O)N(C)[C@@H](CCCC)C(=O)N[C@@H](C)C(=O)N[C@H](C(=O)NCC(N)=O)CSCC(=O)N[C@@H](Cc2ccc(O)cc2)C(=O)N(C)[C@@H](C)C(=O)N[C@@H](CC(N)=O)C(=O)N2CCC[C@H]2C(=O)N[C@@H](CN)C(=O)N[C@@H](CCC(=O)O)C(=O)N2C[C@H](O)C[C@H]2C(=O)N[C@@H](Cc2c[nH]c3ccccc23)C(=O)N[C@@H](CCN)C(=O)N[C@@H](Cc2cn(CC(=O)O)c3ccccc23)C(=O)N1C [Example 5168] ({CH2CO}-Y[NMeA]NP[Dap]E[Hyp]W[Dab][Trp(1-CH2COOH)][NMeNle][NMeNle]ACG-NH2; thioether N-14)
7,1 to 9.9,CCCC[C@H]1C(=O)N(C)[C@@H](CCCC)C(=O)N[C@@H](C)C(=O)N[C@H](C(=O)NCC(N)=O)CSCC(=O)N[C@@H](Cc2ccc(O)cc2)C(=O)N2CCNC[C@H]2C(=O)N[C@@H](CC(N)=O)C(=O)N2CCC[C@H]2C(=O)N[C@@H](Cc2cnc[nH]2)C(=O)N[C@@H](CCC(N)=O)C(=O)N2C[C@H](O)C[C@H]2C(=O)N[C@@H](Cc2c[nH]c3ccccc23)C(=O)N[C@@H](CO)C(=O)N[C@@H](Cc2c[nH]c3ccccc23)C(=O)N1C [Example 1275]
8,10 to 99.9,CCCC[C@H]1C(=O)N(C)[C@@H](CCCC)C(=O)N[C@@H](C)C(=O)N[C@H](C(=O)NCC(N)=O)CSCC(=O)N[C@@H](Cc2ccc(O)cc2)C(=O)N2CCCC[C@H]2C(=O)N[C@@H](CC(=O)O)C(=O)N2CCC[C@H]2C(=O)N[C@@H](Cc2cnc[nH]2)C(=O)N[C@@H](CCC(N)=O)C(=O)N2C[C@H](O)C[C@H]2C(=O)N[C@@H](Cc2c[nH]c3ccccc23)C(=O)N[C@@H](CO)C(=O)N[C@@H](Cc2csc3ccccc23)C(=O)N1C [Example 1509] ({CH2CO}-Y[Pip]DPHQ[Hyp]WS[Bta][NMeNle][NMeNle]ACG-NH2; thioether N-14)

# Same assay, conditions: PD-L1-His 10 nM, PD-1-Ig 20 nM; read-out: HTRF Human PD-L1/PD-1 Binding Assay IC50
row,IC50 [nM],SMILES
1,215,CCCC[C@H]1C(=O)N(C)CC(=O)N[C@@H](CO)C(=O)N[C@@H](C)C(=O)N(C)[C@@H](Cc2ccccc2)C(=O)N[C@@H](Cc2ccc(O)cc2)C(=O)N2CCCC[C@@H]2C(=O)N[C@@H](Cc2c[nH]c3ccccc23)C(=O)N[C@@H](Cc2ccc(O)cc2)C(=O)N[C@@H](CC(C)C)C(=O)N[C@H](C(=O)NCC(N)=O)CSCC(=O)N[C@@H](Cc2ccccc2)C(=O)N(C)[C@@H](Cc2ccccc2)C(=O)N1C [Example 10057] ({CH2CO}-F[NMeF][NMeNle][Sar]SA[NMeF]Y[dPip]WYLCG-NH2; thioether N-13)
